Tested on: immortalized human sebocyte cell line, SZ95
Assay: In vitro assay of inhibition of lipid synthesis
Format: cell-based
Details: 48 h, SZ95 sebocytes
Description: In Vitro Assay of Inhibition of Lipid Synthesis
To evaluate the inhibition of lipid synthesis, the immortalized human sebocyte cell line, SZ95 (stablished by Zouboulis, C. C. et al J Invest Dermatol 1999; 113:1011-20), was treated with arachidonic acid (AA) in presence or absence of compound. Lipids were detected by using a lipid sensing fluorophore.
Compounds were dissolved in dimethylsulfoxide (DMSO) 100%. Then the stocks were serial diluted 1/3 in DMSO 100%, and this battery of solutions were diluted 1/10 in culture medium, to minimize the percentage of the DMSO over cells.
10 k cells were plated in 384 well microtiter plates and incubated at 37° C. and 5% CO2 in DMEM/F12 supplemented with 10% FBS, 1.25 ng/ml of rhEGF and GA-1000 before of compound and stimulus addition. After 24 h, compounds dissolved in culture media were added over cells, diluting the solutions prepared 1/40 in the final volume of the assay. Then, cells and compounds were preincubated for 30 min at 37° C. and 5% CO2. After this prior incubation, the lipid synthesis was induced by 75 μM of AA final solution, preparing a solution 10× in culture media. Finally, SZ95 treated were incubated for 48 h at 37° C. and 5% CO2.
Neutral lipids were measured using AdipoRed™, purchased from LONZA. To do that, cells were washed with PBS and incubated with a solution of AdipoRed™ (final dilution 1/80 in PBS) for 30 min at room temperature. After the staining process, the fluorescence intensity (FI) was quantified using a fluorescence plate reader (excitation 485 nm; emission 535).
Activity of compounds were calculated as % of inhibition considering the maximal fluorescence for AA-stimulated cells and the minimum fluorescence for unstimulated cells as controls.

[1] = lipid synthesis induced by 75 μM arachidonic acid, AdipoRed fluorescence, Table 1
[2] = 75 μM arachidonic acid, AdipoRed, Table 2, finer classes for compounds with IC50 less than 250 nM

SMILES | IC50 [1] [nM] | IC50 [2] [nM]
CCCCCCCCCCCCOc1c[nH]c(C(=O)O)c1 [Example 1, 4-(Dodecyloxy)-1H-pyrrole-2-carboxylic acid] | 250 to 1000 | –
CCCCCCCCCCCCOc1c[nH]c(C(=O)OCC)c1 [Example 2, Ethyl 4-(dodecyloxy)-1H-pyrrole-2-carboxylate] | > 5000 | –
CCCCCCCCCCCCOc1c[nH]c(C(=O)OCCN2C(=O)CCC2=O)c1 [Example 3, 2-(2,5-Dioxopyrrolidin-1-yl)ethyl 4-(dodecyloxy)-1H-pyrrole-2-carboxylate] | 1000 to 5000 | –
CCCCCCCCCCCCOc1c[nH]c(C(=O)OCCN2CCCC2=O)c1 [Example 4, 2-(2-Oxopyrrolidin-1-yl)ethyl 4-(dodecyloxy)-1H-pyrrole-2-carboxylate] | 1000 to 5000 | –
CCCCCCCCCCCCOc1c[nH]c(C(=O)OCC(F)(F)F)c1 [Example 5, 2,2,2-Trifluoroethyl 4-(dodecyloxy)-1H-pyrrole-2-carboxylate] | 250 to 1000 | –
CCCCCCCCCCCCOc1c[nH]c(C(=O)OCCO)c1 [Example 6, 2-Hydroxyethyl 4-(dodecyloxy)-1H-pyrrole-2-carboxylate] | 1000 to 5000 | –
CCCCCCCCCCCCOc1c[nH]c(C(=O)OCCOCCOCCOCCO)c1 [Example 7, 2-(2-(2-(2-Hydroxyethoxy)ethoxy)ethoxy)ethyl 4-(dodecyloxy)-1H-pyrrole-2-carboxylate] | > 5000 | –
CCCCCCCCCCCCOc1c[nH]c(C(=O)OC(C)OC(=O)OC(C)C)c1 (stereo not drawn) [Example 8, 1-((Isopropoxycarbonyl)oxy)ethyl 4-(dodecyloxy)-1H-pyrrole-2-carboxylate] | < 250 | 100 to 250
CCCCCCCCCCCCOc1c[nH]c(C(=O)OCC(=O)N(C)CC(=O)OCC)c1 [Example 9, 2-((2-Ethoxy-2-oxoethyl)(methyl)amino)-2-oxoethyl 4-(dodecyloxy)-1H-pyrrole-2-carboxylate] | 1000 to 5000 | –
CCCCCCCCCCCCOc1c[nH]c(C(=O)OCCOC(=O)[C@@H](N)C(C)C)c1 [Example 10, 2-((L-valyl)oxy)ethyl 4-(dodecyloxy)-1H-pyrrole-2-carboxylate] | 1000 to 5000 | –
CCCCCCCCCCCCOc1c[nH]c(C(=O)OCc2oc(=O)oc2C)c1 [Example 11, (5-methyl-2-oxo-1,3-dioxol-4-yl)methyl 4-(dodecyloxy)-1H-pyrrole-2-carboxylate] | < 250 | 100 to 250
CCCCCCCCCCc1c[nH]c(C(=O)O)c1F [Example 12, 4-Decyl-3-fluoro-1H-pyrrole-2-carboxylic acid] | < 250 | < 50
CCCCCCCCCCCc1c[nH]c(C(=O)O)c1F [Example 13, 3-Fluoro-4-undecyl-1H-pyrrole-2-carboxylic acid] | < 250 | < 50
CCCCCCCCCCCCc1c[nH]c(C(=O)O)c1F [Example 14, 4-Dodecyl-3-fluoro-1H-pyrrole-2-carboxylic acid] | < 250 | < 50
CCCCCCCCCCCCc1c[nH]c(C(=O)OCC(F)(F)F)c1F [Example 15, 2,2,2-Trifluoroethyl 4-dodecyl-3-fluoro-1H-pyrrole-2-carboxylate] | < 250 | < 50
CCCCCCCCCCCCc1c[nH]c(C(=O)OCCOCCOCC)c1F [Example 16, 2-(2-Ethoxyethoxy)ethyl 4-dodecyl-3-fluoro-1H-pyrrole-2-carboxylate] | < 250 | 50 to 100
CCCCCCCCCCCCc1c[nH]c(C(=O)OC(C)OC(=O)OC(C)C)c1F (stereo not drawn) [Example 17, 1-((Isopropoxycarbonyl)oxy)ethyl 4-dodecyl-3-fluoro-1H-pyrrole-2-carboxylate] | < 250 | < 50
CCCCCCCCCCCCc1c[nH]c(C(=O)OC(C)OC(=O)OCCOC)c1F (stereo not drawn) [Example 18, 1-(((2-Methoxyethoxy)carbonyl)oxy)ethyl 4-dodecyl-3-fluoro-1H-pyrrole-2-carboxylate] | < 250 | 100 to 250
CCCCCCCCCCCCc1c[nH]c(C(=O)OC(C)OC(=O)OCCOCCOCC)c1F (stereo not drawn) [Example 19, 4-Oxo-3,5,8,11-tetraoxatridecan-2-yl 4-dodecyl-3-fluoro-1H-pyrrole-2-carboxylate] | < 250 | < 50
CCCCCCCCCCCCCc1c[nH]c(C(=O)OCC)c1F [Example 20, Ethyl 3-fluoro-4-tridecyl-1H-pyrrole-2-carboxylate] | 1000 to 5000 | –
CCCCCCCCCCCCCc1c[nH]c(C(=O)O)c1F [Example 21, 3-Fluoro-4-tridecyl-1H-pyrrole-2-carboxylic acid] | < 250 | < 50

SMILES | IC50 [1] [nM] | IC50 [2] [nM]
CCCCCCCCCCCCCc1c[nH]c(C(=O)OC)c1F [Example 22, Methyl 3-fluoro-4-tridecyl-1H-pyrrole-2-carboxylate] | 1000 to 5000 | –
CCCCCCCCCCCCCc1c[nH]c(C(=O)OC(C)C)c1F [Example 23, Isopropyl 3-fluoro-4-tridecyl-1H-pyrrole-2-carboxylate] | > 5000 | –
CCCCCCCCCCCCCc1c[nH]c(C(=O)OC(C)(C)C)c1F [Example 24, Tert-butyl 3-fluoro-4-tridecyl-1H-pyrrole-2-carboxylate] | 250 to 1000 | –
CCCCCCCCCCCCCc1c[nH]c(C(=O)OC2CCCCC2)c1F [Example 25, Cyclohexyl 3-fluoro-4-tridecyl-1H-pyrrole-2-carboxylate] | 1000 to 5000 | –
CCCCCCCCCCCCCc1c[nH]c(C(=O)OCc2ccccc2)c1F [Example 26, Benzyl 3-fluoro-4-tridecyl-1H-pyrrole-2-carboxylate] | < 250 | 100 to 250
CCCCCCCCCCCCCc1c[nH]c(C(=O)OCC(F)(F)F)c1F [Example 27, 2,2,2-Trifluoroethyl 3-fluoro-4-tridecyl-1H-pyrrole-2-carboxylate] | < 250 | < 50
CCCCCCCCCCCCCc1c[nH]c(C(=O)OCCN2C(=O)CCC2=O)c1F [Example 28, 2-(2,5-Dioxopyrrolidin-1-yl)ethyl 3-fluoro-4-tridecyl-1H-pyrrole-2-carboxylate] | < 250 | 50 to 100
CCCCCCCCCCCCCc1c[nH]c(C(=O)OCCN2CCCC2=O)c1F [Example 29, 2-(2-Oxopyrrolidin-1-yl)ethyl 3-fluoro-4-tridecyl-1H-pyrrole-2-carboxylate] | < 250 | 100 to 250
CCCCCCCCCCCCCc1c[nH]c(C(=O)OCc2oc(=O)oc2C)c1F [Example 30, (5-Methyl-2-oxo-1,3-dioxol-4-yl)methyl 3-fluoro-4-tridecyl-1H-pyrrole-2-carboxylate] | < 250 | < 50
CCCCCCCCCCCCCc1c[nH]c(C(=O)OCC(=O)N(C)CC(=O)OCC)c1F [Example 31, 2-((2-Ethoxy-2-oxoethyl)(methyl)amino)-2-oxoethyl 3-fluoro-4-tridecyl-1H-pyrrole-2-carboxylate] | < 250 | < 50
CCCCCCCCCCCCCc1c[nH]c(C(=O)OCCO)c1F [Example 32, 2-Hydroxyethyl 3-fluoro-4-tridecyl-1H-pyrrole-2-carboxylate] | 250 to 1000 | –
CCCCCCCCCCCCCc1c[nH]c(C(=O)OCCCO)c1F [Example 33, 3-Hydroxypropyl 3-fluoro-4-tridecyl-1H-pyrrole-2-carboxylate] | < 250 | 50 to 100
CCCCCCCCCCCCCc1c[nH]c(C(=O)OCCCCO)c1F [Example 34, 4-Hydroxybutyl 3-fluoro-4-tridecyl-1H-pyrrole-2-carboxylate] | < 250 | 100 to 250
CCCCCCCCCCCCCc1c[nH]c(C(=O)OCCCCCO)c1F [Example 35, 5-Hydroxypentyl 3-fluoro-4-tridecyl-1H-pyrrole-2-carboxylate] | < 250 | 100 to 250
CCCCCCCCCCCCCc1c[nH]c(C(=O)OCCCCCCO)c1F [Example 36, 6-Hydroxyhexyl 3-fluoro-4-tridecyl-1H-pyrrole-2-carboxylate] | < 250 | 100 to 250
CCCCCCCCCCCCCc1c[nH]c(C(=O)OCCCCCCCO)c1F [Example 37, 7-Hydroxyheptyl 3-fluoro-4-tridecyl-1H-pyrrole-2-carboxylate] | < 250 | 100 to 250
CCCCCCCCCCCCCc1c[nH]c(C(=O)OCCCCCCCCO)c1F [Example 38, 8-Hydroxyoctyl 3-fluoro-4-tridecyl-1H-pyrrole-2-carboxylate] | 250 to 1000 | –
CCCCCCCCCCCCCc1c[nH]c(C(=O)OCCCCCCCCCO)c1F [Example 39, 9-Hydroxynonyl 3-fluoro-4-tridecyl-1H-pyrrole-2-carboxylate] | < 250 | < 50
CCCCCCCCCCCCCc1c[nH]c(C(=O)OCC(O)CO)c1F (stereo not drawn) [Example 40, 2,3-Dihydroxypropyl 3-fluoro-4-tridecyl-1H-pyrrole-2-carboxylate] | < 250 | < 50
CCCCCCCCCCCCCc1c[nH]c(C(=O)OC(CO)CO)c1F [Example 41, 1,3-Dihydroxypropan-2-yl 3-fluoro-4-tridecyl-1H-pyrrole-2-carboxylate] | < 250 | < 50

From patent US20210220328A1, “PYRROLE DERIVATIVES AS ACC INHIBITORS” (Almirall, S.A., priority 2017, published 2021)
